The source of these data is patent publication US20260159519A1, “IMIDAZOPYRIDAZINE SUBSTITUTED BENZENE RING DERIVATIVE, PREPARATION METHOD, PHARMACEUTICAL COMPOSITION AND USE” (SHANGHAI SIMR BIOTECHNOLOGY CO., LTD., priority 2022, published 2026).

The subject of the data set is Chinese hamster ovary cells (CHO-WBL cells). Briefly: In vitro micronucleus assay. To be noted: 3-hour treatment with S9, 3-hour and 24-hour treatment without S9; overall judgment. The format is cell-based. The text has this: The experimental design is based on the experimental purpose and follows the following experimental design guidelines: • (1) OECD Guidelines for the Testing of Chemicals 487, In Vitro Mammalian Cell Micronucleus Test, revised in 2016; • (2) ICH S2 (R1): Guideline on Genotoxicity Testing and Data Interpretation for Pharmaceuticals Intended for Human Use, validated in November 2011.
Experimental system and selection rationale: Chinese hamster ovary cells (CHO-WBL cells) were used as an experimental system in this experiment. The cell line has a karyotype containing 21 chromosomes and a growth cycle of 12 to 13 hours. CHO-WBL cells were originally derived from Dr. S. Wolff at the University of California in San Francisco, USA, then cloned in the laboratory of Dr. A. Bloom at Columbia University in New York, and cloned again by Dr. S. Galloway at Litton Bionetics Laboratory in Maryland. The cell stock solution was stored in liquid nitrogen. The karyotype of each batch of cell stock solution was identified, and tests confirmed that it was free from mycoplasma contamination. The number of passages after cell cloning will not exceed 15. Chinese hamster ovary cells were chosen because the cell line is recommended for use in OECD Guidelines for the Testing of Chemicals 487 and has been proven to be sensitive to a variety of clastogens/aneugens (Marilyn J. et al., 2006).
Medium and cell growth conditions: Chinese hamster ovary cells were cultured in McCoy's 5A complete medium (McCoy's 5A complete medium supplemented with 10 vt % fetal bovine serum, 2 mM GlutaMAX™ medium, 100 units/mL penicillin, and 100 μg/mL streptomycin), and grown in a standard environment (a high-humidity incubator with a temperature of 37° C. and a CO2 concentration of 5%). The day before administration, CHO-WBL cells in exponential growth phase were inoculated onto an eight-well cell culture slide at a density of 8×10^3 cells/400 μL McCoy's 5A complete medium/well.
Metabolic activation system: The in vitro metabolic activation system (Maron and Ames, 1983) contains a rat liver microsomal homogenate induced by β-naphthoflavone and phenobarbital (referred to as S9) and an NADPH-generating system (i.e., NADP disodium and isocitric acid trisodium). S9 was purchased from CHI Scientific, Inc. and stored in a −75° C. refrigerator prior to use. Preparation method for S9 homogenate: Male Sprague Dawley rats were intraperitoneally injected with a single dose of p-naphthoflavone and phenobarbital, followed by material preparation.
Preparation of S9 metabolic activation system: NADP disodium salt and isocitric acid trisodium salt were first dissolved in serum-free medium to prepare a core solution, which was then filtered through a 0.22 µm filter to sterilize. Immediately before use, the S9 homogenate was thawed, and the components of the S9 metabolic activation system were mixed in the proportions shown in Table 2 below.
Dose exploration experiment: In the dose exploration experiment, 8 administration concentrations were established in each administration treatment series. For each concentration of the test substance, 1 well of cells was set up. According to the ICH S2 (R1) guidelines, when not limited by the solubility of the test substance in the solvent/medium or the cytotoxicity of the test substance, the recommended maximum concentration is 1 mM or 0.5 mg/mL, whichever is lower. However, when limited by solubility, the test maximum concentration is the minimum concentration at which a small amount of precipitate is visible in the medium under the microscope. To ensure that the upper limit of solubility in the medium can be reached, up to 4 concentrations with visible precipitate can be tested.
For `CCn1cnc2c(-c3ccc(F)c(-c4cc5oc(=O)n(C)c5cc4OC)c3)cnnc21` [Example 87, 6-(5-(7-Ethyl-7H-imidazo[4,5-c]pyridazin-4-yl)-2-fluorophenyl)-5-methoxy-3-methylbenzo[d]oxazol-2(3H)-one], the “Results of in vitro micronucleus assay” value was “Negative”.

As to `CCn1cnc2c(-c3ccc(F)c(-c4cc5c(cc4OC)N(C)C(=O)C5)c3)cnnc21` [Example 161, 5-(5-(7-Ethyl-7H-imidazo[4,5-c]pyridazin-4-yl)-2-fluorophenyl)-6-methoxy-1-methyldihydro-2-one], the “Results of in vitro micronucleus assay” value is recorded as “Negative”.

In the case of `CCn1cnc2c(-c3ccc(F)c(-c4cc5c(cc4OC)N(C)C(=O)CO5)c3)cnnc21` [Example 42, 7-(5-(7-Ethyl-7H-imidazo[4,5-c]pyridazin-4-yl)-2-fluorophenyl)-6-methoxy-4-methyl-2H-benzo[b][1,4]oxazin-3(4H)-one], the “Results of in vitro micronucleus assay” value is recorded as “Negative”.

With `CCN1C(=O)COc2cc(-c3cc(-c4cnnc5c4ncn5CC)ccc3F)c(OC)cc21` [Example 31, 4-Ethyl-7-(5-(7-ethyl-7H-imidazo[4,5-c]pyridazin-4-yl)-2-fluorophenyl)-6-methoxy-2H-benzo[b][1,4]oxazin-3(4H)-one], the “Results of in vitro micronucleus assay” value was “Negative”.

With `COc1cc2c(cc1-c1cc(-c3cnnc4c3ncn4C(C)C)ccc1F)OCC(=O)N2C` [Example 36, 7-(2-Fluoro-5-(7-isopropyl-7H-imidazo[4,5-c]pyridazin-4-yl)phenyl)-6-methoxy-4-methyl-2H-benzo[b][1,4]oxazin-3(4H)-one], the “Results of in vitro micronucleus assay” value was “Negative”.
